In patent US9622988B2, “Small molecule xanthine oxidase inhibitors and methods of use” (Baylor College of Medicine, priority 2012, dated 2017):

Key:
XO = biological target: T1, XO (Bos taurus, UniProt P80457); assay: Conversion of DHNB to products by XO; assay type: biochemical, bovine; conditions: room temperature
T1 construct: Xanthine oxidase from bovine milk; purchased Sigma Chemical Co. (St. Louis, Mo.); host or cells: bovine milk (natural source)

[1] = Peroxynitrite scavenging assay; conditions: 20 μM (FIG. 7C)
Procedure: Peroxynitrite Scavenging Assay—Peroxynitrite (ONOO^−) was generated by mixing 5 mL acidic solution (0.6 M HCl) of H2O2 (0.7 M) and 5 mL of 0.6 M KNO2 in an ice bath for 1 second and the reaction was quenched with 5 mL of ice-cold 1.2 M NaOH. Residual H2O2 was removed using granular MnO2 prewashed with 1.2 M NaOH and the reaction mixture was then left overnight at −20° C. Concentrations of ONOO^− were determined before each experiment at 302 nm using a molar extinction coefficient of 1,670 M^−1 cm^−1. The final concentrations of reagents used in the assay are as follows: 25 μM ONOO^−, 10 μM DTPA, 5 μM DHR 123, 0.1 M phosphate buffer, pH 7.4. The ONOO^− scavenging assay was performed by monitoring the oxidation of dihydrorhodamine (DHR 123) by ONOO^− spectrophotometrically at 500 nm.

[2] = biological target: Xanthine oxidase from bovine milk (Bos taurus, UniProt P80457); conditions: for inhibition of XO: each compound at 20 μM (FIG. 2); for time course of inhibition of XO activity: 20 nM XO added to 50 μM xanthine and 6.67 μM inhibitor (FIG. 3)
Chain of Xanthine oxidase from bovine milk (P80457 whole entry): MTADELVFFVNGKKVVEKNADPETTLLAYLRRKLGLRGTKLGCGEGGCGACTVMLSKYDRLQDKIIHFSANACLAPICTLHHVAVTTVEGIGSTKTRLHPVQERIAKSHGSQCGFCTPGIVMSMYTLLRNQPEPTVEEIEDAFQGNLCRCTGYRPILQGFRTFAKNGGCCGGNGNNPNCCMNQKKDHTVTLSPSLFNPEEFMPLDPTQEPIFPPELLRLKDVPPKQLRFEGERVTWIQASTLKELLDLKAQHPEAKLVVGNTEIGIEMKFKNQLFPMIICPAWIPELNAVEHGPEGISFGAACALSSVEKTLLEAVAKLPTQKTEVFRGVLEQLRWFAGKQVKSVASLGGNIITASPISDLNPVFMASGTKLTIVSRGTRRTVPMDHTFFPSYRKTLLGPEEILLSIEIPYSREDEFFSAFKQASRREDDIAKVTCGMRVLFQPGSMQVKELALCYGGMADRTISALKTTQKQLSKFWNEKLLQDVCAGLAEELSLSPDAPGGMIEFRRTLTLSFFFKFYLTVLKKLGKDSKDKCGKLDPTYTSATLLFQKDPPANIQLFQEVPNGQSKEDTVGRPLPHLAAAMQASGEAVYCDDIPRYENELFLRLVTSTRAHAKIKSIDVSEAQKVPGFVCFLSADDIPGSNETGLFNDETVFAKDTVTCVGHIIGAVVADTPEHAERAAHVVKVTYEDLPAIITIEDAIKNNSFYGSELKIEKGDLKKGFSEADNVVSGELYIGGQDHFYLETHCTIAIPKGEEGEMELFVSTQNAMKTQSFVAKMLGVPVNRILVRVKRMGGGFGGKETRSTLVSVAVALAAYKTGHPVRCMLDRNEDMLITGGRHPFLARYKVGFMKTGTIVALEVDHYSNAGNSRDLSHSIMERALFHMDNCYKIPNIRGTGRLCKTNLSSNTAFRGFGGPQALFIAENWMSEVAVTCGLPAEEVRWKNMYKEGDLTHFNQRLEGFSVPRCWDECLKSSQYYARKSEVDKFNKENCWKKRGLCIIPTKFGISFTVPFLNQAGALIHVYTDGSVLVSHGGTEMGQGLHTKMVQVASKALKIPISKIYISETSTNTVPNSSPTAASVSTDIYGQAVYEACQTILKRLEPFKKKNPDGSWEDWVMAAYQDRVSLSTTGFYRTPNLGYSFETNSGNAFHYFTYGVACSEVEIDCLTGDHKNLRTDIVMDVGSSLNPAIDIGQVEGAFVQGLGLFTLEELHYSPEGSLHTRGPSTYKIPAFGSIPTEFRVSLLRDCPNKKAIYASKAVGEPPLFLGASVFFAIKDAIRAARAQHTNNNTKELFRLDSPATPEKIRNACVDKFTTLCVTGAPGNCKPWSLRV

[3] = test system: allantoxanamide induced hyperuricemic mice; assay: Hypouricemic effect in allantoxanamide induced hyperuricemic mice; assay type: in vivo, C57BL/6 mice; conditions: 100 mg/kg oral before 200 mg/kg allantoxanamide i.p., up to 4 hours (FIG. 13)
Procedure: A hyperuricemia mouse model was used. Allantoxanamide, a potent uricase inhibitor, was used to induce hyperuricemia in mice in this study. […] The mice were subsequently intraperitoneally injected with allantoxanamide at 200 mg/kg in 0.5% CMC-Na in a volume of 0.1 ml/10 g mouse body weight just after the tested drug oral administration to increase the serum uric acid level. […] The negative control mice were administered PEG400 only followed by i.p. allantoxanamide. The normal group mice were administered PEG400 only followed by i.p. CMC-Na only. Food and water were withheld overnight prior to the study. Whole blood samples were collected from mice through orbital vein bleeding at the end of the study. The mice were anaesthetized with diethyl ether inside a chamber. The blood was allowed to clot for 1 h at room temperature and then centrifuged at 2350×g for 4 min to obtain the serum. The serum was kept on ice and assayed immediately. Serum uric acid was determined with the phosphotungstate method, as known to those of skill in the art.

[4] = Superoxide scavenging assay (xanthine-xanthine oxidase system, NBT); conditions: 20 μM (FIG. 7D)
Procedure: Superoxide Scavenging Assay—Superoxide (O2^−.) scavenging activity was assayed in the xanthine-xanthine oxidase system and determined by the inhibition of the reduction of nitro blue tetrazolium (NBT) to form blue formazan which has an absorption at 560 nm. The final concentrations of reagents used in the assay are as follows: 16.8 mU xanthine oxidase, 25 μM xanthine, 50 μM NBT, and 0.1 M phosphate buffer (pH 8.5). […] The abilities of polyphenols to scavenge O2^−. were compared with that of GSH.

[5] = Antioxidant activity of polyphenols (summary); conditions: FIG. 7

T1 sequence (P80457 whole entry): as above

Row | Compound | inhibition of XO [2] | ONOO^− scavenging effect [1] | other results
1 | O=C(O)c1cc(O)c(O)c([N+](=O)[O-])c1 [3,4-dihydroxy-5-nitrobenzoic acid] | – | – | inhibitory effect of the DHNB/XO product on XO (XO): no inhibitory effect on XO
2 | O=C(O)c1ccc(O)c(O)c1 [DHB-COOH, 3,4-dihydroxybenzoic acid, reference compound] | no effect on XO | – | –
3 | O=Cc1cc(O)c(O)c([N+](=O)[O-])c1 [DHNB, 3,4-Dihydroxy-5-nitrobenzaldehyde] | inhibitory effects on XO | strong scavenging effect | serum urate levels (hypouricemic effect) [3]: significantly lowered in 2 hours and maintained at a level just slightly higher than the normal level in 4 hours; histology analysis for the liver, kidney, and heart vs control mice (C57BL/6 mice; mouse, in vivo): did not show any difference; time course of inhibition of XO activity [2]: time-dependent inhibition; XO inhibition after treatment with reducing agents ([2]; 20 μM DHNB, then GSH, DTT or 2-ME 20 mM (FIG. 5)): did not abolish the inhibition; initial rates with increasing xanthine concentrations (Dixon plot) ([2]; DHNB concentration fixed, 1 min pre-incubation (FIG. 1B)): did not change with increasing xanthine concentrations
4 | COc1ccc(CO)cc1OC [DMB-CH2OH, 3,4-dimethoxybenzyl alcohol, reference compound] | no effect on XO | – | –
5 | O.O=Cc1cc(O)c(O)c(O)c1 [THB-CHO, 3,4,5-trihydroxybenzaldehyde hydrate] | inhibitory effects on XO | strong scavenging effect | superoxide scavenging effect [4]: strong scavenging effects on superoxide; IC50 of XO activity inhibition ([2]; 20 nM XO, 50 μM xanthine, phosphate buffer pH 7.4, 25° C.): too high to determine
6 | Oc1ncnc2[nH]ncc12 [allopurinol, reference compound] | – | – | serum urate levels (hypouricemic effect) [3]: significantly lowered the serum urate level close to the normal level; antioxidant activity (scavenging of DPPH, ONOO^−, HOCl, superoxide ion) [5]: does not possess the antioxidant properties; pups died in two days (C57BL/6 mice; 500 mg/kg, total 19 pups of surviving mice): eight; time course of inhibition of XO activity [2]: time-dependent inhibition

Further lines, with some results ahead:

Row | inhibition of XO [2] | Compound | ONOO^− scavenging effect [1] | other results
7 | inhibitory effects on XO | O=Cc1cc(O)c(O)cc1[N+](=O)[O-] [DH6NB, 3,4-Dihydroxy-6-nitrobenzaldehyde] | strong scavenging effect | –
8 | inhibitory effects on XO | O=Cc1ccc(O)c(O)c1 [DHB-CHO, 3,4-dihydroxybenzaldehyde] | strong scavenging effect | –
9 | no inhibition on XO activity | COc1cc(C=O)ccc1O [Vanillin, reference compound] | – | –
10 | no effect on XO | O=C(O)/C=C/c1ccc(O)c(O)c1 [caffeic acid, reference compound] | strong scavenging effect | –
11 | no effect on XO | O=C(O)c1cc(O)c(O)c(O)c1 [gallic acid, reference compound] | strong scavenging effect | –
